Among the data in patent US9587005B2 (priority 2010, dated 2017) are EC50 values, retold here.

What all share (format): cell-based
For one assay, the target named is T1, GLP-1 receptor (Homo sapiens, UniProt P43220).
T1 construct: expressed in transfected cells; host or cells: HEK293
Kind of assay: cAMP induction, firefly luciferase reporter assay in HEK293 cells co-transfected with GLP-1 receptor. The following applies: EC50 (nM) at GLP-1 Receptor. The source says: (§1) This example describes an exemplary method of testing the biological activity of the peptides of the present disclosures, which method involves assaying cAMP synthesis.
Background: A reporter such as luciferase makes a cellular process visible.

In the next assay the target is T2, glucagon receptor (Homo sapiens, UniProt P47871).
T2 construct: expressed in transfected cells; host or cells: HEK293
T2 sequence (P47871 26-477): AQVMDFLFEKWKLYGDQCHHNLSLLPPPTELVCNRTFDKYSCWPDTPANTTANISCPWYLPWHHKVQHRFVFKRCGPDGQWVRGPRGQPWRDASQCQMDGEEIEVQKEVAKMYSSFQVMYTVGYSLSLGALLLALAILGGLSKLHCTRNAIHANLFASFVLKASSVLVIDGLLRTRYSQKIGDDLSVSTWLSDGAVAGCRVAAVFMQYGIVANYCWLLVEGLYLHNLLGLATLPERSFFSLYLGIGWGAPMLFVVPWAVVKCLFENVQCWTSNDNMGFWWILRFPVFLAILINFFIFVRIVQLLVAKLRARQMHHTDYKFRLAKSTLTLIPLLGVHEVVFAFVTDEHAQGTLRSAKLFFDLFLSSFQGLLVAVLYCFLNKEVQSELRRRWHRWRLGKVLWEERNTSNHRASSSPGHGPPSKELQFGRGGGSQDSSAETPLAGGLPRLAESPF
Kind of assay: cAMP induction, firefly luciferase reporter assay in HEK293 cells co-transfected with glucagon receptor. The following applies: EC50 (nM) at Glucagon Receptor.
Description: as §1

A further assay addresses T3, GIP receptor (Homo sapiens, UniProt P48546).
T3 sequence (P48546 22-466): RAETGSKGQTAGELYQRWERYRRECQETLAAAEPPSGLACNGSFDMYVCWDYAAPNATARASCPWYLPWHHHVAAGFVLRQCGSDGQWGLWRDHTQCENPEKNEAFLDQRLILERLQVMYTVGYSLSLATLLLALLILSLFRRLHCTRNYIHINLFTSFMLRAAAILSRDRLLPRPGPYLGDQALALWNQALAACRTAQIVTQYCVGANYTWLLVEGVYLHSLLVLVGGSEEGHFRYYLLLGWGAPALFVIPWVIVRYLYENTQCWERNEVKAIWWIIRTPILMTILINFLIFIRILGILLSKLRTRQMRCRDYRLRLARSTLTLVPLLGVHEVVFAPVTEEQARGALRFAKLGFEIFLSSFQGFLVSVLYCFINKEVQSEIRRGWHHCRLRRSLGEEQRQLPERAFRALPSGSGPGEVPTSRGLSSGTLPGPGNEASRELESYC
Kind of assay: cAMP induction, firefly luciferase reporter assay in HEK293 cells co-transfected with GIP receptor. The following applies: EC50 (nM) at GIP Receptor.

The mark [1] stands for this setting: Table 4, Example 9, composite of multiple different activity assays.

*1 amine or outer side, *2 acyl side, *3 side chain or, on linkers, in order; H or OH if unused. Where a SMILES comes first, the peptide text is derived from it. Side-chain parts run from the residue outwards. [ ]: non-standard residue; d: D form. The star is where a group is joined. γGlu = O=C(O)[C@H](CCC(=O)[*:2])N[*:1]; Palmitoyl = CCCCCCCCCCCCCCCC(=O)*; Aib = CC(C)(N)C(=O)O

T1 sequence (P43220 24-463): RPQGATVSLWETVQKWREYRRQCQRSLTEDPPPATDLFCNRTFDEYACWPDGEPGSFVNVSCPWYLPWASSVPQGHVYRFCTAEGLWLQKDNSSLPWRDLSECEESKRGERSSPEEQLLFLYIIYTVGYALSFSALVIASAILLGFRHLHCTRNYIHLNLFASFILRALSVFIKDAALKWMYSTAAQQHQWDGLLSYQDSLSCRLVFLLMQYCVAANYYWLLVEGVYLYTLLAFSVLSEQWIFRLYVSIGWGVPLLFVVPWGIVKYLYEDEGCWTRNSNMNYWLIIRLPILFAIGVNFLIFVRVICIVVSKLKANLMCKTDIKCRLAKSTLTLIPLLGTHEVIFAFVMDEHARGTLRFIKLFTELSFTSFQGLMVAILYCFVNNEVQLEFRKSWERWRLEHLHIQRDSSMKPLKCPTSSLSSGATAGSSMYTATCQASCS

By EC50 is commonly meant the concentration that produces a half-maximal response. Higher therefore signals weaker potency. Turning to `CCCCCCCCCCCCCCCC(=O)N[C@@H](CCC(=O)NCCCC[C@H](NC(=O)[C@H](CC(=O)O)NC(=O)[C@H](CO)NC(=O)[C@@H](NC(=O)[C@H](Cc1ccccc1)NC(=O)[C@@H](NC(=O)CNC(=O)[C@H](CCC(N)=O)NC(=O)C(C)(C)NC(=O)[C@@H](N)Cc1c[nH]cn1)[C@@H](C)O)[C@@H](C)O)C(=O)N[C@@H](CO)C(=O)N[C@@H](CCCCN)C(=O)N[C@@H](Cc1ccc(O)cc1)C(=O)N[C@@H](CC(C)C)C(=O)N[C@@H](CC(=O)O)C(=O)N[C@@H](CCC(=O)O)C(=O)N[C@@H](CCCNC(=N)N)C(=O)N[C@@H](C)C(=O)N[C@@H](C)C(=O)N[C@@H](CCC(N)=O)C(=O)N[C@@H](CC(=O)O)C(=O)N[C@@H](Cc1ccccc1)C(=O)N[C@H](C(=O)N[C@@H](CCC(N)=O)C(=O)N[C@@H](Cc1c[nH]c2ccccc12)C(=O)N[C@@H](CC(C)C)C(=O)N[C@@H](CC(C)C)C(=O)N[C@@H](CC(=O)O)C(=O)NCC(=O)NCC(=O)N1CCC[C@H]1C(=O)N[C@@H](CO)C(=O)N[C@@H](CO)C(=O)NCC(=O)N[C@@H](C)C(=O)N1CCC[C@H]1C(=O)N1CCC[C@H]1C(=O)N1CCC[C@H]1C(=O)N[C@@H](CO)C(N)=O)C(C)C)C(=O)O` [compound 28], the EC50 at GLP-1 receptor (setting [1]) was 0.002 nM; at GLP-1 receptor (Table 7, Example 13), 0.002 nM; at glucagon receptor (setting [1]), 0.002 nM; at glucagon receptor (Table 7, Example 13) it was 0.002 nM; on GIP receptor (setting [1]), 0.003 nM; on GIP receptor (Table 7, Example 13), 0.003 nM.

As to `CCCCCCCCCCCCCCCC(=O)N[C@@H](CCC(=O)NCCCC[C@H](NC(=O)[C@H](CC(=O)O)NC(=O)[C@H](CO)NC(=O)[C@@H](NC(=O)[C@H](Cc1ccccc1)NC(=O)[C@@H](NC(=O)CNC(=O)[C@H](CCC(N)=O)NC(=O)C(C)(C)NC(=O)[C@@H](N)Cc1c[nH]cn1)[C@@H](C)O)[C@@H](C)O)C(=O)N[C@@H](CO)C(=O)N[C@@H](CCCCN)C(=O)N[C@@H](Cc1ccc(O)cc1)C(=O)N[C@@H](CC(C)C)C(=O)N[C@@H](CC(=O)O)C(=O)N[C@@H](CCC(=O)O)C(=O)N[C@@H](CCCNC(=N)N)C(=O)N[C@@H](CCCNC(=N)N)C(=O)N[C@@H](C)C(=O)NC(C)(C)C(=O)N[C@@H](CCC(=O)O)C(=O)N[C@@H](Cc1ccccc1)C(=O)N[C@H](C(=O)N[C@@H](CCC(N)=O)C(=O)N[C@@H](Cc1c[nH]c2ccccc12)C(=O)N[C@@H](CC(C)C)C(=O)N[C@@H](CC(C)C)C(=O)N[C@@H](CC(=O)O)C(=O)N[C@H](C(N)=O)[C@@H](C)O)C(C)C)C(=O)O` [compound 31] (H-H[Aib]QGTFTSDK([γGlu-Palmitoyl])SKYLDERRA[Aib]EFVQWLLDT-NH2; N-terminus assumed), the EC50 on GLP-1 receptor (setting [1]) turned out to be 0.0044 nM; at glucagon receptor (setting [1]) it was 0.008 nM; at glucagon receptor (Table 7, Example 13), 0.008 nM; at GIP receptor (setting [1]), 0.008 nM; on GIP receptor (Table 7, Example 13), 0.008 nM.

With `CCCCCCCCCCCCCCCC(=O)N[C@@H](CCC(=O)NCCCC[C@H](NC(=O)[C@H](CC(=O)O)NC(=O)[C@H](CO)NC(=O)[C@@H](NC(=O)[C@H](Cc1ccccc1)NC(=O)[C@@H](NC(=O)CNC(=O)[C@H](CCC(N)=O)NC(=O)C(C)(C)NC(=O)[C@@H](N)Cc1c[nH]cn1)[C@@H](C)O)[C@@H](C)O)C(=O)N[C@@H](CO)C(=O)N[C@@H](CCCCN)C(=O)N[C@@H](Cc1ccc(O)cc1)C(=O)N[C@@H](CC(C)C)C(=O)N[C@@H](CC(=O)O)C(=O)N[C@@H](CCC(=O)O)C(=O)N[C@@H](CCCNC(=N)N)C(=O)N[C@@H](CCCNC(=N)N)C(=O)N[C@@H](C)C(=O)NC(C)(C)C(=O)N[C@@H](CCC(=O)O)C(=O)N[C@@H](Cc1ccccc1)C(=O)N[C@H](C(=O)N[C@@H](CCC(N)=O)C(=O)N[C@@H](Cc1c[nH]c2ccccc12)C(=O)N[C@@H](CC(C)C)C(=O)N[C@@H](CC(C)C)C(=O)N[C@@H](CC(=O)O)C(=O)NCC(=O)NCC(=O)N1CCC[C@H]1C(=O)N[C@@H](CO)C(=O)N[C@@H](CO)C(=O)NCC(=O)N[C@@H](C)C(=O)N1CCC[C@H]1C(=O)N1CCC[C@H]1C(=O)N1CCC[C@H]1C(=O)N[C@@H](CO)C(N)=O)C(C)C)C(=O)O` [compound 37] (H-H[Aib]QGTFTSDK([γGlu-Palmitoyl])SKYLDERRA[Aib]EFVQWLLDGGPSSGAPPPS-NH2; N-terminus assumed), the EC50 on GLP-1 receptor (setting [1]) amounted to 0.006 nM; on glucagon receptor (setting [1]) it was 0.004 nM; on GIP receptor (setting [1]), 0.002 nM.

Turning to `CCCCCCCCCCCCCCCC(=O)N[C@@H](CCC(=O)NCCCC[C@H](NC(=O)[C@H](CC(=O)O)NC(=O)[C@H](CO)NC(=O)[C@@H](NC(=O)[C@H](Cc1ccccc1)NC(=O)[C@@H](NC(=O)CNC(=O)[C@H](CCC(=O)O)NC(=O)C(C)(C)NC(=O)[C@@H](N)Cc1c[nH]cn1)[C@@H](C)O)[C@@H](C)O)C(=O)N[C@@H](CO)C(=O)N[C@@H](CCCCN)C(=O)N[C@@H](Cc1ccc(O)cc1)C(=O)N[C@@H](CC(C)C)C(=O)N[C@@H](CC(=O)O)C(=O)N[C@@H](CCC(=O)O)C(=O)N[C@@H](CCCNC(=N)N)C(=O)N[C@@H](C)C(=O)N[C@@H](C)C(=O)N[C@@H](CCC(N)=O)C(=O)N[C@@H](CC(=O)O)C(=O)N[C@@H](Cc1ccccc1)C(=O)N[C@H](C(=O)N[C@@H](CCC(N)=O)C(=O)N[C@@H](Cc1c[nH]c2ccccc12)C(=O)N[C@@H](CC(C)C)C(=O)N[C@@H](CC(C)C)C(=O)N[C@@H](CC(=O)O)C(=O)NCC(=O)NCC(=O)N1CCC[C@H]1C(=O)N[C@@H](CO)C(=O)N[C@@H](CO)C(=O)NCC(=O)N[C@@H](C)C(=O)N1CCC[C@H]1C(=O)N1CCC[C@H]1C(=O)N1CCC[C@H]1C(=O)N[C@@H](CO)C(N)=O)C(C)C)C(=O)O` [compound 39] (H-H[Aib]EGTFTSDK([γGlu-Palmitoyl])SKYLDERAAQDFVQWLLDGGPSSGAPPPS-NH2; N-terminus assumed), the EC50 stood at 0.008 nM on GLP-1 receptor (setting [1]), 1.28 nM at glucagon receptor (setting [1]) and 0.026 nM at GIP receptor (setting [1]).

As for `CCCCCCCCCCCCCCCC(=O)N[C@@H](CCC(=O)NCCCC[C@H](NC(=O)[C@H](CC(=O)O)NC(=O)[C@H](CO)NC(=O)[C@@H](NC(=O)[C@H](Cc1ccccc1)NC(=O)[C@@H](NC(=O)CNC(=O)[C@H](CCC(N)=O)NC(=O)C(C)(C)NC(=O)[C@@H](N)Cc1c[nH]cn1)[C@@H](C)O)[C@@H](C)O)C(=O)N[C@@H](CO)C(=O)N[C@@H](CCCCN)C(=O)N[C@@H](Cc1ccc(O)cc1)C(=O)N[C@@H](CC(C)C)C(=O)N[C@@H](CC(=O)O)C(=O)N[C@@H](CCC(=O)O)C(=O)N[C@@H](CCCNC(=N)N)C(=O)N[C@@H](CCCNC(=N)N)C(=O)N[C@@H](C)C(=O)NC(C)(C)C(=O)N[C@@H](CCC(=O)O)C(=O)N[C@@H](Cc1ccccc1)C(=O)N[C@H](C(=O)N[C@@H](CCC(N)=O)C(=O)N[C@@H](Cc1c[nH]c2ccccc12)C(=O)N[C@@H](CC(C)C)C(=O)N[C@@H](CC(C)C)C(=O)N[C@@H](CC(=O)O)C(=O)NCC(=O)NCC(=O)N1CCC[C@H]1C(=O)N[C@@H](CO)C(=O)N[C@@H](CO)C(=O)NCC(=O)N[C@@H](C)C(=O)N1CCC[C@H]1C(=O)N1CCC[C@H]1C(=O)N1CCC[C@H]1C(=O)N[C@@H](CO)C(N)=O)C(C)C)C(=O)O` [compound 79] (H-H[Aib]QGTFTSDK([γGlu-Palmitoyl])SKYLDERRA[Aib]EFVQWLLDGGPSSGAPPPS-NH2; N-terminus assumed), the EC50 on GLP-1 receptor (Table 6, Example 12) was determined as 0.006 nM; at glucagon receptor (Table 6, Example 12) it was 0.004 nM; on GIP receptor (Table 6, Example 12) it was 0.003 nM.

For the compound `CCCCCCCCCCCCCCCC(=O)N[C@@H](CCC(=O)N[C@@H](CCC(=O)NCCCC[C@H](NC(=O)[C@H](CC(=O)O)NC(=O)[C@H](CO)NC(=O)[C@@H](NC(=O)[C@H](Cc1ccccc1)NC(=O)[C@@H](NC(=O)CNC(=O)[C@H](CCC(N)=O)NC(=O)C(C)(C)NC(=O)[C@@H](N)Cc1ccc(O)cc1)[C@@H](C)O)[C@@H](C)O)C(=O)N[C@@H](CO)C(=O)N[C@H](C(=O)N[C@@H](Cc1ccc(O)cc1)C(=O)N[C@@H](CC(C)C)C(=O)N[C@@H](CC(=O)O)C(=O)N[C@@H](CCCCN)C(=O)N[C@@H](CCC(N)=O)C(=O)N[C@@H](C)C(=O)N[C@@H](C)C(=O)NC(C)(C)C(=O)N[C@@H](CCC(=O)O)C(=O)N[C@@H](Cc1ccccc1)C(=O)N[C@H](C(=O)N[C@@H](CC(N)=O)C(=O)N[C@@H](Cc1c[nH]c2ccccc12)C(=O)N[C@@H](CC(C)C)C(=O)N[C@@H](CC(C)C)C(=O)N[C@@H](C)C(=O)NCC(=O)NCC(=O)N1CCC[C@H]1C(=O)N[C@@H](CO)C(=O)N[C@@H](CO)C(=O)NCC(=O)N[C@@H](C)C(=O)N1CCC[C@H]1C(=O)N1CCC[C@H]1C(=O)N1CCC[C@H]1C(=O)N[C@@H](CO)C(N)=O)C(C)C)[C@@H](C)CC)C(=O)O)C(=O)O` [compound 81] (H-Y[Aib]QGTFTSDK([γGlu-γGlu-Palmitoyl])SIYLDKQAA[Aib]EFVNWLLAGGPSSGAPPPS-NH2; N-terminus assumed), the concentration for a half-maximal effect (EC50) amounted to 0.008 nM on GLP-1 receptor (Table 6, Example 12); 0.073 nM on glucagon receptor (Table 6, Example 12); 0.005 nM on GIP receptor (Table 6, Example 12).
